Consider twelve compounds from patent EP4667483A1, “HUMAN TRANSFERRIN RECEPTOR-BINDING PEPTIDE” (JCR Pharmaceuticals Co., Ltd., priority 2023, dated 2024).

In assay [1] the target is T1, human transferrin receptor (hTfR) (Homo sapiens, UniProt P02786). Briefly: SPR measurement under pH 7.4 conditions (Biacore T200, CM3 chip, hTfR captured by His Tag antibody). It counts as binding. To be noted: read-out: hTfR SPR pH7.4 KD.
The target of assay [2] is T1, human transferrin receptor (hTfR). Briefly: SPR measurement under pH 6.0 conditions (Biacore T200, NTA chip, immobilized hTfR). Conditions: read-out: hTfR SPR pH6.0 KD. It is filed as binding.

Bridge positions count the residues as written; N and C are the ends. Square brackets hold non-standard residues; d marks the D form. Peptide text beside a SMILES is read from it. * marks the point of attachment. Ala(imidazo(1,2-a)pyr3yl) = N[C@@H](Cc1cnc2ccccn12)C(=O)O; NMePhe(4-COOH) = CN[C@@H](Cc1ccc(C(=O)O)cc1)C(=O)O; Phe(3-COOH) = N[C@@H](Cc1cccc(C(=O)O)c1)C(=O)O; NMePhe(3-Cl) = CN[C@@H](Cc1cccc(Cl)c1)C(=O)O; 3Pal(6-NH2) = Nc1ccc(C[C@H](N)C(=O)O)cn1; NMeW = CN[C@@H](Cc1c[nH]c2ccccc12)C(=O)O; Lys(N3) = [N-]=[N+]=NCCCC[C@H](N)C(=O)O; NMeY = CN[C@@H](Cc1ccc(O)cc1)C(=O)O; Nva(3-Et) = CCC(CC)[C@H](N)C(=O)O; NMeF = CN[C@@H](Cc1ccccc1)C(=O)O; 4Pal = N[C@@H](Cc1ccncc1)C(=O)O; PEG4 = NCCOCCOCCOCCOCCC(=O)O; Carboxymethyl = O=C(O)C*; NH(CH2)3NH2 = NCCCN*

T1 sequence (P02786 whole entry): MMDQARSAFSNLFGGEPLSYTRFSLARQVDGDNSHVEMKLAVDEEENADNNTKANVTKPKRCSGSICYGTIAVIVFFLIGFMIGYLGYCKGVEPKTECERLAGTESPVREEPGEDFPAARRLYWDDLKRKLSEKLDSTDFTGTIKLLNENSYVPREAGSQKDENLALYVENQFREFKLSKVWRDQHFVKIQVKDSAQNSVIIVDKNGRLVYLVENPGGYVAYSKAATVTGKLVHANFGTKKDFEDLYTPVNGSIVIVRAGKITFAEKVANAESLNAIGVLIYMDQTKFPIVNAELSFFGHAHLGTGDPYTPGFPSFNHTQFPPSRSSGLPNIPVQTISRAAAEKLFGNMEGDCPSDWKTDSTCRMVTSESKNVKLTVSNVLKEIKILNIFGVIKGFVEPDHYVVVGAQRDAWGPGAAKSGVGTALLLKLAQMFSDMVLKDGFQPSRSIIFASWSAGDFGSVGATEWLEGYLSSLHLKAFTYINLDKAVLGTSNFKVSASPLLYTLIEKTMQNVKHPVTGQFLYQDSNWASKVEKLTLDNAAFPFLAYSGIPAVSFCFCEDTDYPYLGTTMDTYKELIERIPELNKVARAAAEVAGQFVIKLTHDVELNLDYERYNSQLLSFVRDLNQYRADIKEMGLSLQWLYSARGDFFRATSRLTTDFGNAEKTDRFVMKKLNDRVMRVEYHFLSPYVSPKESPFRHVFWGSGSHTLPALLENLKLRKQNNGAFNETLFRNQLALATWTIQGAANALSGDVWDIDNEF

Consider `CC[C@H](C)[C@@H]1NC(=O)[C@H](Cc2ccc(OCC(=O)O)cc2)NC(=O)[C@H](Cc2ccc(N)nc2)NC(=O)[C@H](CC(N)=O)NC(=O)[C@H](Cc2c[nH]c3ccccc23)NC(=O)[C@H](C(C)C)NC(=O)[C@H](Cc2cccc(Cl)c2)N(C)C(=O)[C@H](C(C)C)NC(=O)[C@H](C)NC(=O)CSC[C@@H](C(=O)NCC(=O)N[C@@H](CCCCN=[N+]=[N-])C(N)=O)NC(=O)[C@H](Cc2ccc(O)cc2)N(C)C(=O)[C@H](Cc2cccc(C(=O)O)c2)NC(=O)[C@H](CCCNC(=N)N)NC(=O)[C@H](CCC(N)=O)NC(=O)[C@H]([C@@H](C)CC)NC1=O` [compound 149], for which the Kd in assay [1] (SPR, pH 7.4, peptide with the linker named in the table) was determined as 3.57 nM; in assay [2] (SPR, pH 6.0, peptide with the linker named in the table), 28.1 nM.

As for `CC[C@H](C)[C@@H]1NC(=O)[C@H](Cc2ccc(OC)cc2)NC(=O)[C@H](Cc2ccc(N)nc2)NC(=O)[C@H](CC(N)=O)NC(=O)[C@H](Cc2c[nH]c3ccccc23)N(C)C(=O)[C@H](C(C)C)NC(=O)[C@H](Cc2cccc(Cl)c2)N(C)C(=O)[C@H](C(C)C)NC(=O)[C@H](C)NC(=O)CSC[C@@H](C(=O)NCCOCCOCCOCCOCCC(N)=O)NC(=O)[C@H](Cc2ccc(O)cc2)N(C)C(=O)[C@H](Cc2ccccc2)NC(=O)[C@H](CCCNC(=N)N)NC(=O)[C@H](CCC(N)=O)NC(=O)[C@H]([C@@H](C)CC)NC1=O` [compound 170] ({CH2CO}-AV[NMePhe(3-Cl)]V[NMeW]N[3Pal(6-NH2)]Y(Me)IIQRF[NMeY]C[PEG4]-NH2; thioether N-15), the dissociation constant Kd stood at 1.34 nM in assay [1] (pH 7.4, single-cycle kinetics) and 7.61 nM in assay [2] (pH 6.0, single-cycle kinetics).

Regarding `CC[C@H](C)[C@@H]1NC(=O)[C@H](Cc2ccc(OC)cc2)NC(=O)[C@H](Cc2ccc(N)nc2)NC(=O)[C@H](CC(N)=O)NC(=O)[C@H](Cc2c[nH]c3ccccc23)N(C)C(=O)[C@H](C(C)C)NC(=O)[C@H](Cc2cccc(Cl)c2)N(C)C(=O)[C@H](C(C)C)NC(=O)[C@H](C)NC(=O)CSC[C@@H](C(=O)NCCOCCOCCOCCOCCC(N)=O)NC(=O)[C@H](Cc2ccc(O)cc2)N(C)C(=O)[C@H](Cc2ccccc2)NC(=O)[C@H](CCCNC(=N)N)NC(=O)[C@H](CCC(=O)NCCCN)NC(=O)[C@H]([C@@H](C)CC)NC1=O` [compound 172] ({CH2CO}-AV[NMePhe(3-Cl)]V[NMeW]N[3Pal(6-NH2)]Y(Me)IIE(NH(CH2)3NH2)RF[NMeY]C[PEG4]-NH2; thioether N-15), the Kd was 0.215 nM in assay [1] (pH 7.4, single-cycle kinetics) and 2.59 nM in assay [2] (pH 6.0, single-cycle kinetics).

Regarding `CC[C@H](C)[C@@H]1NC(=O)[C@H](Cc2ccc(OC)cc2)NC(=O)[C@H](CCCNC(=N)N)NC(=O)[C@H](CC(N)=O)NC(=O)[C@H](Cc2c[nH]c3ccccc23)N(C)C(=O)[C@H](C(C)C)NC(=O)[C@H](Cc2cccc(Cl)c2)N(C)C(=O)[C@H](C(C)C)NC(=O)[C@H](C)NC(=O)CSC[C@@H](C(=O)NCCOCCOCCOCCOCCC(N)=O)NC(=O)[C@H](Cc2ccc(O)cc2)N(C)C(=O)[C@H](Cc2ccccc2)NC(=O)[C@H](CCCNC(=N)N)NC(=O)[C@H](CCC(N)=O)NC(=O)[C@H]([C@@H](C)CC)NC1=O` [compound 174] ({CH2CO}-AV[NMePhe(3-Cl)]V[NMeW]NRY(Me)IIQRF[NMeY]C[PEG4]-NH2; thioether N-15), the Kd is 20.6 nM in assay [1] (pH 7.4, single-cycle kinetics) and 75.5 nM in assay [2] (pH 6.0, single-cycle kinetics).

Consider `CC[C@H](C)[C@@H]1NC(=O)[C@H](Cc2ccc(OC)cc2)NC(=O)[C@H](CCCNC(=N)N)NC(=O)[C@H](CC(N)=O)NC(=O)[C@H](Cc2c[nH]c3ccccc23)N(C)C(=O)[C@H](C(C)C)NC(=O)[C@H](Cc2cccc(Cl)c2)N(C)C(=O)[C@H](C(C)C)NC(=O)[C@H](C)NC(=O)CSC[C@@H](C(=O)NCCOCCOCCOCCOCCC(N)=O)NC(=O)[C@H](Cc2ccc(O)cc2)N(C)C(=O)[C@H](Cc2ccccc2)NC(=O)[C@H](CCCNC(=N)N)NC(=O)[C@H](CCC(=O)NCCCN)NC(=O)[C@H]([C@@H](C)CC)NC1=O` [compound 175] ({CH2CO}-AV[NMePhe(3-Cl)]V[NMeW]NRY(Me)IIE(NH(CH2)3NH2)RF[NMeY]C[PEG4]-NH2; thioether N-15), for which the equilibrium dissociation constant (Kd) in assay [1] (pH 7.4, single-cycle kinetics) worked out at 3.04 nM; in assay [2] (pH 6.0, single-cycle kinetics), 12.2 nM.

As for `CC[C@H](C)[C@@H]1NC(=O)[C@H](Cc2ccc(OCC(=O)O)cc2)NC(=O)[C@H](Cc2ccc(O)cc2)NC(=O)[C@H](CC(N)=O)NC(=O)[C@H](Cc2c[nH]c3ccccc23)N(C)C(=O)[C@H](C(C)C)NC(=O)[C@H](Cc2cccc(Cl)c2)N(C)C(=O)[C@H](C(C)C)NC(=O)[C@H](C)NC(=O)CSC[C@@H](C(=O)NCCOCCOCCOCCOCCC(N)=O)NC(=O)[C@H](Cc2ccc(O)cc2)N(C)C(=O)[C@H](Cc2cccc(C(=O)O)c2)NC(=O)[C@H](CCCNC(=N)N)NC(=O)[C@H](CCCCN)NC(=O)[C@H]([C@@H](C)CC)NC1=O` [compound 177], the equilibrium dissociation constant (Kd) in assay [1] (pH 7.4, single-cycle kinetics) came to 0.134 nM; in assay [2] (pH 6.0, single-cycle kinetics), 2.26 nM.

With `CC[C@H](C)[C@@H]1NC(=O)[C@H](Cc2ccc(OCC(=O)O)cc2)NC(=O)[C@H](Cc2ccc(O)cc2)NC(=O)[C@H](CC(N)=O)NC(=O)[C@H](Cc2c[nH]c3ccccc23)N(C)C(=O)[C@H](C(C)C)NC(=O)[C@H](Cc2cccc(Cl)c2)N(C)C(=O)[C@H](C(C)C)NC(=O)[C@H](C)NC(=O)CSC[C@@H](C(=O)NCCOCCOCCOCCOCCC(N)=O)NC(=O)[C@H](Cc2ccc(C(=O)NCCOCCOCCOCCOCCC(=O)O)cc2)N(C)C(=O)[C@H](Cc2cccc(C(=O)O)c2)NC(=O)[C@H](CCCNC(=N)N)NC(=O)[C@H](CCCCN)NC(=O)[C@H]([C@@H](C)CC)NC1=O` [compound 178] ({CH2CO}-AV[NMePhe(3-Cl)]V[NMeW]NYY(Carboxymethyl)IIKR[Phe(3-COOH)][NMePhe(4-COOH)](PEG4)C[PEG4]-NH2; thioether N-15), the Kd in assay [1] (pH 7.4, single-cycle kinetics) came to 0.391 nM; in assay [2] (pH 6.0, single-cycle kinetics), 3.1 nM.

As for `CC[C@H](C)[C@@H]1NC(=O)[C@H](Cc2ccc(OC)cc2)NC(=O)[C@H](Cc2ccc(O)cc2)NC(=O)[C@H](CC(N)=O)NC(=O)[C@H](Cc2c[nH]c3ccccc23)N(C)C(=O)[C@H](C(C)C)NC(=O)[C@H](Cc2cccc(Cl)c2)N(C)C(=O)[C@H](C(C)C)NC(=O)[C@H](C)NC(=O)CSC[C@@H](C(=O)NCCOCCOCCOCCOCCC(N)=O)NC(=O)[C@H](Cc2ccc(C(=O)NCCOCCOCCOCCOCCC(=O)O)cc2)N(C)C(=O)[C@H](Cc2cccc(C(=O)O)c2)NC(=O)[C@H](CCCNC(=N)N)NC(=O)[C@H](CCCCN)NC(=O)[C@H]([C@@H](C)CC)NC1=O` [compound 180] ({CH2CO}-AV[NMePhe(3-Cl)]V[NMeW]NYY(Me)IIKR[Phe(3-COOH)][NMePhe(4-COOH)](PEG4)C[PEG4]-NH2; thioether N-15), the Kd in assay [1] (pH 7.4, single-cycle kinetics) was 0.229 nM; in assay [2] (pH 6.0, single-cycle kinetics), 0.957 nM.

Take `CCC(CC)[C@@H]1NC(=O)[C@H](Cc2ccc(OC)cc2)NC(=O)[C@H](Cc2ccc(N)nc2)NC(=O)[C@H](CC(N)=O)NC(=O)[C@H](Cc2cnc3ccccn23)NC(=O)[C@H](C(C)C)NC(=O)[C@H](Cc2cccc(Cl)c2)N(C)C(=O)[C@H](C(C)C)NC(=O)[C@H](C)NC(=O)CSC[C@@H](C(=O)NCC(=O)N[C@@H](CCCCN=[N+]=[N-])C(N)=O)NC(=O)[C@H](Cc2ccc(C(=O)O)cc2)N(C)C(=O)[C@H](Cc2ccncc2)NC(=O)[C@H](CCCNC(=N)N)NC(=O)[C@H](CCCNC(=N)N)NC(=O)[C@H]([C@@H](C)CC)NC1=O` [compound 181] ({CH2CO}-AV[NMePhe(3-Cl)]V[Ala(imidazo(1,2-a)pyr3yl)]N[3Pal(6-NH2)]Y(Me)[Nva(3-Et)]IRR[4Pal][NMePhe(4-COOH)]CG[Lys(N3)]-NH2; thioether N-15): the Kd came to 24.5 nM in assay [1] (pH 7.4, single-cycle kinetics) and 124 nM in assay [2] (pH 6.0, single-cycle kinetics).

For the compound `CCC(CC)[C@@H]1NC(=O)[C@H](Cc2ccc(OC)cc2)NC(=O)[C@H](Cc2ccc(N)nc2)NC(=O)[C@H](CC(N)=O)NC(=O)[C@H](Cc2cnc3ccccn23)NC(=O)[C@H](C(C)C)NC(=O)[C@H](Cc2cccc(Cl)c2)N(C)C(=O)[C@H](C(C)C)NC(=O)[C@H](C)NC(=O)CSC[C@@H](C(=O)NCC(=O)N[C@H](CCC(=O)O)C(=O)N[C@H](CCC(=O)O)C(=O)N[C@H](CCC(=O)O)C(=O)N[C@H](CO)C(=O)N[C@H](CO)C(=O)N[C@@H](CCCCN=[N+]=[N-])C(N)=O)NC(=O)[C@H](Cc2ccc(C(=O)O)cc2)N(C)C(=O)[C@H](Cc2ccncc2)NC(=O)[C@H](CCCNC(=N)N)NC(=O)[C@H](CCCNC(=N)N)NC(=O)[C@H]([C@@H](C)CC)NC1=O` [compound 184], the Kd in assay [1] (SPR, pH 7.4, Table 1-3-2-2) worked out at 136 nM; in assay [2] (SPR, pH 6.0, Table 1-3-2-2), 121 nM.

Turning to `CC[C@H](C)[C@@H]1NC(=O)[C@H](Cc2ccc(OC)cc2)NC(=O)[C@H](Cc2ccc(N)nc2)NC(=O)[C@H](CC(N)=O)NC(=O)[C@H](Cc2cnc3ccccn23)NC(=O)[C@H](C(C)C)NC(=O)[C@H](Cc2cccc(Cl)c2)N(C)C(=O)[C@H](C(C)C)NC(=O)[C@H](C)NC(=O)CSC[C@@H](C(=O)NCC(=O)N[C@H](CCC(=O)O)C(=O)N[C@H](CCC(=O)O)C(=O)N[C@H](CCC(=O)O)C(=O)N[C@H](CO)C(=O)N[C@H](CO)C(=O)N[C@@H](CCCCN=[N+]=[N-])C(N)=O)NC(=O)[C@H](Cc2ccc(O)cc2)N(C)C(=O)[C@H](Cc2ccncc2)NC(=O)[C@H](CCCNC(=N)N)NC(=O)[C@H](CCCNC(=N)N)NC(=O)[C@H]([C@@H](C)CC)NC1=O` [compound 185], the dissociation constant Kd in assay [1] (SPR, pH 7.4, Table 1-3-2-2) came out at 28.7 nM; in assay [2] (SPR, pH 6.0, Table 1-3-2-2), 381 nM.

For `CCC(CC)[C@@H]1NC(=O)[C@H](Cc2ccc(O)cc2)NC(=O)[C@H](Cc2ccc(N)nc2)NC(=O)[C@H](CC(N)=O)NC(=O)[C@H](Cc2c[nH]c3ccccc23)N(C)C(=O)[C@H](C(C)C)NC(=O)[C@H](Cc2ccccc2)N(C)C(=O)[C@H](C(C)C)NC(=O)[C@H](C)NC(=O)CSC[C@@H](C(=O)NCC(=O)N[C@@H](CCCCN=[N+]=[N-])C(N)=O)NC(=O)[C@H](Cc2ccc(C(=O)O)cc2)N(C)C(=O)[C@H](Cc2ccc(O)cc2)NC(=O)[C@H](CCCNC(=N)N)NC(=O)[C@H](CCCCN)NC(=O)[C@H]([C@@H](C)CC)NC1=O` [compound 187] ({CH2CO}-AV[NMeF]V[NMeW]N[3Pal(6-NH2)]Y[Nva(3-Et)]IKRY[NMePhe(4-COOH)]CG[Lys(N3)]-NH2; thioether N-15), the Kd in assay [1] (SPR, pH 7.4, Table 1-3-2-2) came out at 9.9 nM; in assay [2] (SPR, pH 6.0, Table 1-3-2-2), 30.7 nM.
